Data as given in patent US11851406B2, “Positive allosteric modulators of the muscarinic acetylcholine receptor M1” (Vanderbilt University, priority 2018, dated 2023).
pEC50: −log10 of the molar value.

What was measured:
[1] = target: T1, human mAChR M1 (Homo sapiens, UniProt P11229); assay: mAChR M1 cell-based functional assay (calcium mobilization), PAM activity: increase in the EC20 acetylcholine response; details: CHO-K1 cells expressing hM1; calcium flux (Fluo-4); potentiation of EC20 acetylcholine response
T1 sequence (P11229 1-460): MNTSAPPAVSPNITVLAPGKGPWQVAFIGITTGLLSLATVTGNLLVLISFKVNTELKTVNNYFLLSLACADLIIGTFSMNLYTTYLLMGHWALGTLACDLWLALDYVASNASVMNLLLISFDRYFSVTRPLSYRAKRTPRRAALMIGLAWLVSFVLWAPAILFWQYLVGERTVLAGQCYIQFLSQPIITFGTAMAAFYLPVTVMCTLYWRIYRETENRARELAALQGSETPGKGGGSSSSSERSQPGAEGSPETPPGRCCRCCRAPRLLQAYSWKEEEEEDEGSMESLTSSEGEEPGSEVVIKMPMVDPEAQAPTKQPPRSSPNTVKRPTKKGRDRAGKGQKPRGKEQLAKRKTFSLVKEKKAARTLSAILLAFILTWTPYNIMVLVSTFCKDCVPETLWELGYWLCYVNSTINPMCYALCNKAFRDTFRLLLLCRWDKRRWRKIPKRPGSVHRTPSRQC
From the text: (§1) Chinese hamster ovary (CHO-K1) cells stably expressing rat (r)M1 were purchased from the American Type Culture Collection and cultured according to their indicated protocol. CHO cells stably expressing human (h)M2, hM3, and hM5 were described previously (Levey, et al., 1991); hM1 and hM4 cDNAs were purchased from Missouri S&T cDNA Resource; rM4 cDNA was provided by T. I. Bonner (National Institutes of Health, Bethesda, Md.). rM2 and rM3 were cloned from a rat brain cDNA library and sequence verified. hM1, rM2, rM3, hM4, and rM4 cDNAs were used to stably transfect CHO-K1 cells purchased from the American Type Culture Collection using Lipofectamine2000. To make stable rM2, hM2, rM3, hM4, and rM4 cell lines for use in calcium mobilization assays, these cells also were stably transfected with a chimeric G-protein (Gqi5) (provided by B. R. Conklin, University of California, San Francisco) using Lipofectamine 2000. rM1, hM1, rM3, hM3, rM5, and hM5 cells were grown in Ham's F-12 medium containing 10% heat-inactivated fetal bovine serum (FBS), 20 mM HEPES, and 50 μg/mL G418 sulfate. rM2-Gqi5, hM2-Gqi5, and hM4-Gqi5 cells were grown in the same medium also containing 500 μg/mL Hygromycin B. Stable rM4-Gqi5 cells were grown in DMEM containing 10% heat-inactivated FBS, 20 mM HEPES, 400 μg/mL G418 sulfate, and 500 μg/mL Hygromycin B.
(§2) For high throughput measurement of agonist-evoked increases in intracellular calcium, CHO-K1 cells stably expressing muscarinic receptors were plated in growth medium lacking G418 and hygromycin at 15,000 cells/20 μL/well in Greiner 384-well black-walled, tissue culture (TC)-treated, clear-bottom plates (VWR). Cells were incubated overnight at 37° C. and 5% CO2. The next day, cells were washed using an ELX 405 (BioTek) with four washes (80 μL) of assay buffer then aspirated to 20 μL. Next, 20 μL of 16 μM Fluo-4/acetoxymethyl ester (Invitrogen, Carlsbad, Calif.) prepared as a 2.3 mM stock in DMSO and mixed in a 1:1 ratio with 10% (w/v) Pluronic F-127 and diluted in assay buffer was added to the wells and the cell plates were incubated for 50 min at 37° C. and 5% CO2. Dye was removed by washing with the ELX 405 (four 80 μL washes of assay buffer) then aspirated to 20 μL. Compound master plates were formatted in an 11 point CRC format (1:3 dilutions) in 100% DMSO with a starting concentration of 10 mM using the BRAVO liquid handler (Agilent). Test compound CRCs were then transferred to daughter plates (240 nL) using the Echo acoustic plate reformatter (Labcyte, Sunnyvale, Calif.) and then diluted into assay buffer (40 μL) to a 2× stock using a Thermo Fisher Combi (Thermo Fisher Scientific, Waltham, Mass.).
(§3) Calcium flux was measured using the Functional Drug Screening System (FDSS) 6000 (Hamamatsu Corporation, Tokyo, Japan) as an increase in the fluorescent static ratio. Compounds were applied to cells (20 μL, 2×) using the automated system of the FDSS 6000 at 4 s into the 300 s protocol and the data were collected at 1 Hz. At 144 s into the 300 s protocol, 10 μL of an EC20 concentration of the muscarinic receptor agonist acetylcholine was added (5×), followed by the addition of 12 μL an EC80 concentration of acetylcholine at the 230 s time point (5×). Agonist activity was analyzed as a concentration-dependent increase in calcium mobilization upon compound addition. Emax values for agonist activity are expressed relative to the maximum for acetylcholine. Positive allosteric modulator activity was analyzed as a concentration-dependent increase in the EC20 acetylcholine response. Antagonist activity was analyzed as a concentration-dependent decrease in the EC80 acetylcholine response. Concentration-response curves were generated using a four-parameter logistical equation in XLfit curve fitting software (IDBS, Bridgewater, N.J.) for Excel (Microsoft, Redmond, Wash.) or Prism (GraphPad Software, Inc., San Diego, Calif.).

[2] = target: T1, human mAChR M1; assay: mAChR M1 cell-based functional assay (calcium mobilization), agonist activity upon compound addition alone; details: CHO-K1 cells expressing hM1; for pEC50: calcium mobilization upon compound addition, no acetylcholine; for Emax: compound alone, relative to the maximum for acetylcholine
From the text: as §1, §2, §3

Row | SMILES | pEC50 [1] | Emax [1] | pEC50 [2] | Emax [2]
1 | Cc1c(Cc2ccc(-c3ccn(C)n3)nc2)cc(C(=O)N[C@H]2CCC[C@@H]2O)nc1-n1cccn1 [Compound 52, N-((1S,2S)-2-hydroxycyclopentyl)-5-methyl-4-((6-(1-methyl-1H-pyrazol-3-yl)pyridin-3-yl)methyl)-6-(1H-pyrazol-1-yl)picolinamide] | 5.30 | 84% | < 5.00 | 9%
2 | Cn1ccc(-c2ccc(Cc3cc(C(=O)NC4CCOCC4)nc(-c4ccn(C)n4)c3)cc2)n1 [Compound 35, 6-(1-methyl-1H-pyrazol-3-yl)-4-(4-(1-methyl-1H-pyrazol-3-yl)benzyl)-N-(tetrahydro-2H-pyran-4-yl)picolinamide] | – | 46% | < 5.00 | < 5%
3 | Cn1ccc(-c2ccc(Cc3cc(C(=O)NC4CCOCC4)nc(-n4cccn4)c3)cc2)n1 [Compound 30, 4-(4-(1-methyl-1H-pyrazol-3-yl)benzyl)-6-(1H-pyrazol-1-yl)-N-(tetrahydro-2H-pyran-4-yl)picolinamide] | – | 65% | < 5.00 | < 5%
4 | Cc1c(Cc2ccc(-c3cnn(C)c3)nc2)cc(C(=O)N[C@H]2CCC[C@@H]2O)nc1-n1cccn1 [Compound 53, N-((1S,2S)-2-hydroxycyclopentyl)-5-methyl-4-((6-(1-methyl-1H-pyrazol-4-yl)pyridin-3-yl)methyl)-6-(1H-pyrazol-1-yl)picolinamide] | 5.40 | 75% | < 5.00 | 5%
5 | Cc1nc(-c2ccc(Cc3cc(C(=O)N[C@H]4CCOC[C@@H]4O)nc(-n4cccn4)c3C)cc2)co1 [Compound 45, N-((3R,4S)-3-hydroxytetrahydro-2H-pyran-4-yl)-5-methyl-4-(4-(2-methyloxazol-4-yl)benzyl)-6-(1H-pyrazol-1-yl)picolinamide] | 6.06 | 47% | < 5.00 | 8%
6 | Cc1c(Cc2ccc(-c3ccn(C)n3)cc2)cc(C(=O)N[C@H]2CCOC[C@@H]2O)nc1-n1cccn1 [Compound 2, N-((3R,4S)-3-hydroxytetrahydro-2H-pyran-4-yl)-5-methyl-4-(4-(1-methyl-1H-pyrazol-3-yl)benzyl)-6-(1H-pyrazol-1-yl)picolinamide] | 6.50 | 78% | 5.15 | 25%
7 | Cn1cc(-c2ccc(Cc3cc(C(=O)NC4CCOCC4)nc(-n4cccn4)c3)cn2)cn1 [Compound 26, 4-((6-(1-methyl-1H-pyrazol-4-yl)pyridin-3-yl)methyl)-6-(1H-pyrazol-1-yl)-N-(tetrahydro-2H-pyran-4-yl)picolinamide] | – | 47% | < 5.00 | 5%
8 | Cc1nc(-c2ccc(Cc3cc(C(=O)NC4CCOCC4)nc(-n4cccn4)c3)cc2)co1 [Compound 27, 4-(4-(2-methyloxazol-4-yl)benzyl)-6-(1H-pyrazol-1-yl)-N-(tetrahydro-2H-pyran-4-yl)picolinamide] | – | 62% | < 5.00 | 6%
9 | Cn1cc(-c2ccc(Cc3cc(C(=O)N[C@H]4CCC[C@@H]4O)nc(-c4ccn(C)n4)c3)cn2)cn1 [Compound 6, N-((1S,2S)-2-hydroxycyclopentyl)-6-(1-methyl-1H-pyrazol-3-yl)-4-((6-(1-methyl-1H-pyrazol-4-yl)pyridin-3-yl)methyl)picolinamide] | – | 67% | < 5.00 | < 5%
10 | Cn1ccc(-c2ccc(Cc3cc(C(=O)N[C@H]4CCOC[C@@H]4O)nc(-c4ccn(C)n4)c3)cc2)n1 [Compound 37, N-((3R,4S)-3-hydroxytetrahydro-2H-pyran-4-yl)-6-(1-methyl-1H-pyrazol-3-yl)-4-(4-(1-methyl-1H-pyrazol-3-yl)benzyl)picolinamide] | 5.81 | 76% | < 5.00 | < 5%
11 | Cc1c(Cc2ccc(-c3ccn(C)n3)cc2)cc(C(=O)NC2CCOCC2(C)C)nc1-c1ccn(C)n1 (stereo not shown) [Compound 17, N-(3,3-dimethyltetrahydro-2H-pyran-4-yl)-5-methyl-6-(1-methyl-1H-pyrazol-3-yl)-4-(4-(1-methyl-1H-pyrazol-3-yl)benzyl)picolinamide] | 5.65 | 86% | < 5.00 | < 5%
12 | Cc1nc(-c2ccc(Cc3cc(C(=O)N[C@H]4CCC[C@@H]4O)nc(-n4cccn4)c3C)cc2)co1 [Compound 54, N-((1S,2S)-2-hydroxycyclopentyl)-5-methyl-4-(4-(2-methyloxazol-4-yl)benzyl)-6-(1H-pyrazol-1-yl)picolinamide] | 5.41 | 52% | < 5.00 | < 5%
13 | Cn1ccc(-c2ccc(Cc3cc(C(=O)N[C@H]4CC[C@@H]4O)nc(-n4cccn4)c3)cc2)n1 [Compound 32, N-((1S,2S)-2-hydroxycyclobutyl)-4-(4-(1-methyl-1H-pyrazol-3-yl)benzyl)-6-(1H-pyrazol-1-yl)picolinamide] | – | 46% | < 5.00 | < 5%
14 | Cn1ccc(-c2ccc(Cc3cc(C(=O)N[C@H]4CCCC[C@@H]4O)nc(-n4cccn4)c3)cc2)n1 [Compound 29, N-((1S,2S)-2-hydroxycyclohexyl)-4-(4-(1-methyl-1H-pyrazol-3-yl)benzyl)-6-(1H-pyrazol-1-yl)picolinamide] | 5.68 | 73% | < 5.00 | < 5%
15 | Cc1nc(-c2ccc(Cc3cc(C(=O)N[C@H]4CCC[C@@H]4O)nc(-n4cccn4)c3)cc2)co1 [Compound 24, N-((1S,2S)-2-hydroxycyclopentyl)-4-(4-(2-methyloxazol-4-yl)benzyl)-6-(1H-pyrazol-1-yl)picolinamide] | 5.31 | 78% | < 5.00 | < 5%
16 | Cc1c(Cc2ccc(-c3ccn(C)n3)cc2)cc(C(=O)N[C@H]2CCOC[C@@H]2O)nc1-c1ccn(C)n1 [Compound 9, N-((3R,4S)-3-hydroxytetrahydro-2H-pyran-4-yl)-5-methyl-6-(1-methyl-1H-pyrazol-3-yl)-4-(4-(1-methyl-1H-pyrazol-3-yl)benzyl)picolinamide] | 6.27 | 86% | 5.01 | 18%
17 | Cn1cc(-c2ccc(Cc3cc(C(=O)NC4CC5(COC5)C4)nc(-n4cccn4)c3)cn2)cn1 [Compound 21, 4-((6-(1-methyl-1H-pyrazol-4-yl)pyridin-3-yl)methyl)-6-(1H-pyrazol-1-yl)-N-(2-oxaspiro[3.3]heptan-6-yl)picolinamide] | – | 40% | < 5.00 | < 5%
